Data taken from patent US20100249418A1, “NOVEL COMPOUND HAVING AFFINITY FOR AMYLOID” (NIHON MEDI-PHYSICS CO., LTD., priority 2007, published 2010).
Where two headings read alike, the source gives them in different places.

Tests used:
[1] = Measurement of partition coefficient based on the octanol extraction method (log Poctanol); assay type: physicochemical; settings: octanol / 10 mmol/L phosphate buffer (pH 7.4)
Method: Partition coefficients based on the octanol extraction method (hereinafter referred to as log Poctanol) were measured, which are generally known as an indicator of permeability of compounds through the blood-brain barrier (hereinafter referred to as BBB).
Each diethyl ether solution of Compound 1, Compound 2, Compound 3 and Compound 4 as well as a diethyl ether solution of [^123I]-IMPY were each diluted with 10 mg/mL ascorbic acid-containing physiological saline solution, and adjusted to a radioactive concentration of 27-30 MBq/mL. To 2 mL of octanol, 10 μL each of these solutions was added, and 2 mL of 10 mmol/L phosphate buffer (pH 7.4) was added, followed by stirring for 30 seconds. After each mixture was centrifuged (2000 rpm×60 min.) with a low-speed centrifuge (type: CTD4, manufactured by Hitachi Koki Co., Ltd), the octanol layer and the water layer were sampled each in an amount of 1 mL, and subjected to measurement of radioactivity count with an autowell gamma system (Type: ARC-301B, manufactured by Aloka). Using the obtained radioactivity count, log Poctanol was calculated in accordance with the equation (1).

[2] = Measurement of transferability into brain and clearance (radioactive accumulation in brain after intravenous injection); assay type: in vivo, male Wistar rats; settings: rats; for Radioactive accumulation per unit weight, After 2 min. / Radioactive accumulation per unit weight, After 5 min. / Radioactive accumulation per unit weight, After 30 min. / Radioactive accumulation per unit weight, After 60 min.: brain; for Radioactive accumulation per unit weight, After 2 min.: 2 min after injection; for Radioactive accumulation per unit weight, After 5 min.: 5 min after injection; for Radioactive accumulation per unit weight, After 30 min.: 30 min after injection; for Radioactive accumulation per unit weight, After 60 min.: 60 min after injection; for Transferability to brain and clearance from brain (in words): 2 to 60 min
Method: Using Compound 1, Compound 2, Compound 3 and Compound 4, a time course change of radioactive accumulation in brain of male Wistar rats (7-week old) was measured.
Compound 1 in 10 mg/mL ascorbic acid-containing physiological saline solution (27 MBq/mL in radioactive concentration), Compound 2 in 10 mg/mL ascorbic acid-containing physiological saline solution (27 MBq/mL in radioactive concentration), Compound 3 in 10 mg/mL ascorbic acid-containing physiological saline solution (28 MBq/mL in radioactive concentration) and Compound 4 in 10 mg/mL ascorbic acid-containing physiological saline solution (30 MBq/mL in radioactive concentration) were prepared to obtain sample solutions. The sample solutions were injected under thiopental anesthesia into the tail vein of the male Wistar rats (7-week old) (dosage: 0.05 mL, dosed radioactivity: 1.4-1.5 MBq equivalent). The rats were sacrificed by bleeding from abdominal artery, and brains were removed and subjected to measurement of mass of brains and further subjected to measurement of radioactivity (hereinafter referred to as A in this Example) with a single channel analyzer (detector type: SP-20 manufactured by OHYO KOKEN KOGYO Co., Ltd.) 2, 5, 30 and 60 minutes after the injection. Further, the radioactivity level of the rest of the whole body was measured in the same manner as above (hereinafter referred to as B in this Example). Using these measurement results, radioactive accumulation per unit weight of brain (% ID/g) at the respective time points of dissection was calculated in accordance with the following formula (2) (Examples 19 to 22).
Separately, [^123I]-IMPY in 10 mg/mL ascorbic acid-containing physiological saline solution (16 MBq/mL in radioactive concentration) was prepared, the same procedure as above was conducted, and radioactive accumulation per unit weight of brain (% ID/g) at the respective time points of dissection was calculated (Comparative Example 1).
Meanwhile, three animals were used for all Examples and Comparative Example 2 at the respective time points.

[3] = test system: Salmonella typhimurium TA98 and TA100; assay: Reverse mutation test (Ames test), overall statement for both strains; assay type: cell-based
Method: (§1) In order to examine gene mutagenicity of Compound 5, reverse mutation test using Salmonella typhimurium TA98 and TA100 (hereinafter referred to as Ames test) was conducted.
(§2) The test was conducted without addition of S9mix and with addition of S9mix. Dimethylsulfoxide (hereinafter referred to as DMSO) was used as a negative control. A positive control was 2-(2-furyl)-3-(5-nitro-2-furyl)acrylamide (hereinafter referred to as AF-2) in case S9mix was not added, and 2-aminoanthracene (hereinafter referred to as 2-AA) in case S9mix was added.
(§3) As a sample solution to be added to a test plate, a solution at maximum concentration in which Compound 5 was dissolved in DMSO (concentration of compound: 50 mg/mL) and a sample solution to be added to a test plate at each concentration in which a solution at maximum concentration was diluted with DMSO were prepared. […]

[4] = test system: Salmonella typhimurium TA98; assay: Reverse mutation test (Ames test), TA98; assay type: cell-based
Method: as §1, §2, §3

[5] = test system: Salmonella typhimurium TA100; assay: Reverse mutation test (Ames test), TA100; assay type: cell-based
Method: as §1, §2, §3

[6] = reported in WO03/106439; cited from earlier work
[7] = [125I]-labeled, normal mice, cited from earlier work; for Transfer into brain: 2 minutes after administration
[8] = test system: amyloid; settings: [125I]-labeled compounds, cited from earlier work
[9] = [11C]-labeled, rats; cited from earlier work

| Compound | logPoctanol value [1] | Radioactive accumulation per unit weight, After 2 min. [2] | Radioactive accumulation per unit weight, After 5 min. [2] | Radioactive accumulation per unit weight, After 30 min. [2] | Radioactive accumulation per unit weight, After 60 min. [2] | Transferability to brain and clearance from brain (in words) [2] | other results |
| --- | --- | --- | --- | --- | --- | --- | --- |
| 2-(4′-hydroxyphenyl)-6-[^123I]iodo-3-methylimidazo[1,2-a]pyridine [Compound 3] | 2.5 | 0.50 % ID/g | 0.34 % ID/g | 0.05 % ID/g | 0.01 % ID/g | excellent transferability to brain and rapid clearance from brain |  |
| 2-[4′-(2″-hydroxyethoxy)phenyl]-6-[^123I]iodo-3-methylimidazo[1,2-a]pyridine [Compound 2] | 2.2 | 0.57 % ID/g | 0.36 % ID/g | 0.05 % ID/g | 0.01 % ID/g | excellent transferability to brain and rapid clearance from brain | Number of reverse mutation colonies relative to the group treated with the negative control ([3]; regardless of addition of S9mix and the addition amount of sample, negative control DMSO): less than two times |
| 3-cyano-2-[4′-(2″-hydroxyethoxy)phenyl]-6-[^123I]iodoimidazo[1,2-a]pyridine [Compound 4] | 3.0 | 0.82 % ID/g | 0.67 % ID/g | 0.18 % ID/g | 0.04 % ID/g | excellent transferability to brain and rapid clearance from brain |  |
| Cc1c(-c2ccc(F)cc2)nc2ccc([123I])cn12 [Compound 1, 2-(4′-fluorophenyl)-6-[^123I]iodo-3-methylimidazo[1,2-a]pyridine] | 2.3 | 0.91 % ID/g | 0.60 % ID/g | 0.08 % ID/g | 0.03 % ID/g | excellent transferability to brain and rapid clearance from brain |  |
| Cc1c(-c2ccc(OCCO)cc2)nc2ccc(I)cn12 [Compound 5, 2-[4′-(2″-hydroxyethoxy)phenyl]-6-iodo-3-methylimidazo[1,2-a]pyridine] |  |  |  |  |  |  | Mutagenicity, TA98, with addition of S9mix ([4]; with addition of S9mix): Negative; Mutagenicity, TA98, without addition of S9mix ([4]; without addition of S9mix): Negative; Mutagenicity, TA100, with addition of S9mix ([5]; with addition of S9mix): Negative; Mutagenicity, TA100, without addition of S9mix ([5]; without addition of S9mix): Negative; Ames test judgement (mutagenicity) ([3]; TA98 and TA100, with and without S9mix): negative in the Ames test and has no mutagenicity |
| CC(=C(C#N)C#N)c1ccc2cc(N(C)CCF)ccc2c1 [FDDNP, 2-(1-{6-[(2-fluoroethyl)(methyl)amino]-2-naphthyl}ethylidene)malononitrile] |  |  |  |  |  |  | Reverse mutation test result [6]: positive |
| CN(C)c1ccc(-c2nc3ccc(I)cc3o2)cc1 [IBOX, 6-iodo-2-[4′-(N,N-dimethylamino)phenyl]benzoxazole] |  |  |  |  |  |  | Transfer into brain [7]: transferred into brain; Clearance from normal tissues [7]: insufficient in clearance from normal tissues |
| CN(C)c1ccc(-c2cn3cc(I)ccc3n2)cc1 [IMPY, 6-iodo-2-[4′-(N,N-dimethylamino)phenyl]imidazo[1,2-a]pyridine] |  |  |  |  |  |  | Reverse mutation test result [6]: positive; Transfer to brain and accumulation at amyloid ([8]; after administration): transferring to brain and accumulating at amyloid after administration; Clearance from normal tissues [8]: rapid clearance from normal tissues |
| CNc1ccc(/C=C/c2ccc(O)cc2)cc1 [SB-13, (E)-4-methylamino-4′-hydroxystilbene] |  |  |  |  |  |  | Clearance from normal tissues [9]: it cannot be said that the clearance is sufficiently fast |
| CN(C)c1ccc(-c2nc3ccc(I)cc3s2)cc1 [TZDM, 6-iodo-2-[4′-(N,N-dimethylamino)phenyl]benzothiazole] |  |  |  |  |  |  | Transfer into brain [7]: transferred into brain; Clearance from normal tissues [7]: insufficient in clearance from normal tissues |
| CN(C)c1ccc(-c2cn3cc([123I])ccc3n2)cc1 [[^123I]-IMPY, reference compound] | 1.9 | 1.19 % ID/g | 0.97 % ID/g | 0.23 % ID/g | 0.09 % ID/g | excellent transferability to brain and rapid clearance from brain |  |
| CN(C)c1ccc(/C=C/c2ccc(I)cc2)cc1 [m-I-SB, (E)-4-dimethylamino-4′-iodostilbene] |  |  |  |  |  |  | Transfer into brain [7]: transferred into brain; Clearance from normal tissues [7]: insufficient in clearance from normal tissues |
